# From patent US5422349A, “Morpholino-oxazinyl-terminated alkylamino ethynyl alanine amino diol compounds for treatment of hypertension” (G. D. Seale & Co., priority 1992, dated 1995)
# Non-standard residues stand in square brackets, D forms with d. Residues, ends and D or L forms follow the SMILES beside them. *: point of attachment. Sta = CC(C)C[C@H](N)[C@@H](O)CC(=O)O; Isovaleryl = CC(C)CC(=O)*
# Assays:
# [1] = target: T1, human renin (Homo sapiens, UniProt P00797); test: Human Renin Inhibition in vitro (angiotensin I produced, by radioimmunoassay); assay type: biochemical; conditions: pH 7.4, 37° C., two hours, human plasma
# T1 construct: purchased National Institute for Biological Standards, London
# T1 sequence (P00797 67-406): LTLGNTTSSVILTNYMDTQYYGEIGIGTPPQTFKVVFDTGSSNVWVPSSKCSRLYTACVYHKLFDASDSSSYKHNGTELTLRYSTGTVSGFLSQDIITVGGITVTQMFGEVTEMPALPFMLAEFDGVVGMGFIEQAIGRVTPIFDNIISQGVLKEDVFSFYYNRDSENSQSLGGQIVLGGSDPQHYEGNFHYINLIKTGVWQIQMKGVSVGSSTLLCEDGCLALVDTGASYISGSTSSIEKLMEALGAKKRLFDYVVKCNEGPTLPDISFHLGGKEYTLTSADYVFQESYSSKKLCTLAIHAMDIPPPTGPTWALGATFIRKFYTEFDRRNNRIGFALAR
# Description: Compounds of Formula I were evaluated as inhibitors of human renin in an in Vitro assay, as follows: This human renin inhibition test has been previously described in detail [Papaioannou et al., Clinical and Experimental Hypertension, A7(9), 1243-1257 (1985)]. Human renin was obtained from the National Institute for Biological Standards, London. An incubation mixture was prepared containing the following components: in a total volume of 0.25 mL: 100 mM Tris-acetate buffer at pH 7.4, 25×10^-6 Goldblatt units of renin, 0.05 mL of plasma from human volunteers taking oral contraceptives, 6.0 mM Na-EDTA, 2.4 mM phenylmethyl sulfonyl fluoride, 1.5 mM 8-hydroxyquinoline, 0.4 mg/mL bovine serum albumin (BSA), and 0.024 mg/mL neomycin sulfate. This mixture was incubated for two hours at 37° C. in the presence or absence of renin inhibitors. The produced angiotensin I was determined by radioimmunoassay (New England Nuclear kit). Test compounds to be assayed were dissolved in DMSO and diluted with 100 mM Tris-acetate buffer at pH 7.4 containing 0.5% BSA to the appropriate concentration. The final concentration of organic solvent in the reaction mixture was less than 1%. Control incubations at 37° C. were used to correct for effects of organic solvent on renin activity.
# [2] = tested on: cathepsin D; conditions: cited from earlier work
# [3] = tested on: hog renin; conditions: after injection of hog renin into nephrectomized rats; cited from earlier work
# [4] = tested on: pepsin; conditions: cited from earlier work
# [5] = tested on: renin; conditions: cited from earlier work
SMILES,IC50 [1] [nM],inhibitor of cathepsin D [2],blood pressure [3],inhibitor of pepsin [4],inhibitor of renin [5]
"C#CC[C@H](NC(=O)[C@@H](CC(=O)N(C)CCN1CCOCC1)Cc1ccccc1)C(=O)N[C@@H](CC1CCCCC1)[C@@H](O)[C@@H](O)CC(C)C [Example 1, N^1-[1R*-[[[1S,1R*-(cyclohexylmethyl)-2S*,3R* -dihydroxy-5-methylhexyl]amino]carbonyl]-3-butynyl]-N^4-methyl-N^4-[2-(4-morpholinyl)ethyl]-2S*-(phenylmethyl)butanediamide]",1,–,–,–,–
CC(C)CC(=O)N[C@H](C(=O)N[C@H](C(=O)N[C@@H](CC(C)C)[C@@H](O)CC(=O)N[C@@H](C)C(=O)N[C@@H](CC(C)C)[C@@H](O)CC(=O)O)C(C)C)C(C)C [pepstatin] (Isovaleryl-VV[Sta]A[Sta]-OH),–,inhibitor,reduce blood pressure in vivo,inhibitor,inhibitor
